Test results published in patent US8575093B2, “Composition and method for treating Streptococcus pneumoniae infection” (priority 2006, dated 2013).

Assays:
[1] = tested on: S. pneumoniae encapsulated serotype 3 strain WU2; experiment: Inhibition of S. pneumoniae adhesion to A549 cells, strain WU2; type: cell-based, Streptococcus pneumoniae
Protocol: (§1) Inhibition of S. pneumoniae adhesion to A549 cells by addition of phages: A549 cells (type II epithelial lung carcinoma cells; ATCC, Rockville, Md., USA) were grown in DMEM medium supplemented with 10% foetal calf serum with penicillin and streptomycin (100 μg/ml each) at 37° C. in a humidified incubator. A549 cells (2.5×10^4/well) were cultured on fibronectin coated plates, to increase A549 cell adhesion to the wells and prevent their detachment during washings, in the absence of antibiotic for 24 hours at which time the cells reached confluence (5×10^4 cells/well on average). The plates were blocked with 1% gelatine for 1 hour and 10^6 CFU bacteria were added per well. The adhesion of S. pneumoniae to uncoated plates was negligible (<80 CFU/ml). The number of bacteria that adhered to fibronectin coated plates (8000±100 SD CFU/ml on average) was subtracted afterwards to determine the net number of bacteria that adhered to the A549 cells only. rFBA at the denoted concentrations (ranging from 5-30 μg/ml) was added to the cultured cells and incubated for an hour. Following extensive washings S. pneumoniae (10^6 CFU) were added for 1 hour incubation. To identify phages able to interfere in bacterial adhesion the bacteria were preincubated with the phages for 1 hour centrifuged and added to the cultured cells. […]

[2] = tested on: Unencapsulated S. pneumoniae serotype 3 strain 3.8DW; experiment: Inhibition of S. pneumoniae adhesion to A549 cells, strain 3.8DW; type: cell-based, Streptococcus pneumoniae
Protocol: as §1

[3] = tested on: S. pneumoniae encapsulated serotype 2 strain D39; experiment: Inhibition of S. pneumoniae adhesion to A549 cells, strain D39; type: cell-based, Streptococcus pneumoniae; settings: p<0.001
Protocol: as §1, with “incubation.” for “incubation. To identify phages able to interfere in bacterial adhesion the bacteria were preincubated with the phages for 1 hour centrifuged and added to the cultured cells.”
(§2) The ability of FC derived synthetic peptide to interfere in S. pneumoniae adhesion to A459 cells was analyzed. […]

[4] = tested on: S. pneumoniae unencapsulated serotype 2 strain R6; experiment: Inhibition of S. pneumoniae adhesion to A549 cells, strain R6; type: cell-based, Streptococcus pneumoniae
Protocol: as §1, with “incubation.” for “incubation. To identify phages able to interfere in bacterial adhesion the bacteria were preincubated with the phages for 1 hour centrifuged and added to the cultured cells.”
as §2

rFBA = molecular target: T1, rFBA (Streptococcus pneumoniae serotype 4, UniProt P0A4S1); experiment: Western blot like assay of FCRP binding to rFBA; settings: rFBA on nitrocellulose probed with FCRP; FIG. 7C
T1 construct: made in house; host or cells: E. coli BL21(DE3)pLysS
Protocol: Western blots: rFBA and FCRP were separated by 1D-SDS PAGE, transferred to nitrocellulose and probed with FCRP or rFBA, respectively. Rabbit anti-FCRP-KLH serum or rabbit anti rFBA was added respectively. In both cases, anti-rabbit IgG (Jackson ImmunoResearch, West Grove, Pa.) was used for final identification. In the control experiment preimmune serum was used as first antibody.
To determine more directly whether FCRP binds to rFBA, Western blot like assays were performed where rFBA is separated using 1D SDS-PAGE, transferred to a nitrocellulose membrane and probed with FCRP. Binding of FCRP was detected by incubating the membrane sequentially with rabbit anti-FCRP-KLH serum and anti-rabbit IgG. […] In the control (FIG. 7D) the first antibody was a pre-immune serum. In the converse experiment, when FCRP is separated on SDS-PAGE, a band of approximately 1.5 kDa corresponding to the molecular weight of FCRP is bound by rFBA (FIG. 7 E). In the control (FIG. 7F) the first antibody was a pre-immune serum.

[5] = tested on: S. pneumoniae serotype 3 strain WU2; experiment: Intranasal inoculation mouse model: nasopharyngeal and lung colonization; type: in vivo, BALB/c mice; settings: for number of bacteria in the lungs: p<0.05
Protocol: Inhibition of S. pneumoniae nasal and lung colonization with flamingo cadherin-related peptide: Seven weeks old BALB/c female mice (Harlan Laboratories, Israel) were housed in sterile conditions under 12 hour light/dark cycles and fed Purina Chow and tap water ad libitum. Animal experimental protocols were reviewed and approved by the Institutional Animal Care and Use Committee of the Ben-Gurion University of the Negev, Beer Sheva, Israel. For respiratory challenge with virulent S. pneumoniae mice were anaesthetized with Isoflurane (RxElite, Meridian, Id., USA) and inoculated intranasally (i.n.) with the denoted colony forming units (CFU) bacteria (in 25 μl PBS) prior and after treatment with the flamingo cadherin derived peptide at the denoted concentrations. […] The experiments were performed with groups of 4 mice at each treatment and each time point and the experiments were repeated on three different occasions.
To find whether FC peptide is capable of inhibiting S. pneumoniae colonization, mice were inoculated intranasally prior and after treatment with the FC-derived peptide at the denoted concentration. S. pneumoniae serotype 3, strain WU2 bacteria were treated with FC peptide, excess peptide was removed and the bacteria were inoculated intranasally. […] Using this size of inoculum, a natural clearance of bacteria from the lungs occurred 24 hours and 48 hours following inoculation.
Seven week old BALB/c female mice were anaesthetized with Isoflurane (RxElite, Meridian, Id.) and inoculated intranasally with S. pneumoniae serotype 3 strain WU2 ([…], a highly virulent bacterial strain) after treatment with 40 μg synthetic Flamingo cadherin receptor derived peptide (FCRP) for 1 hr. […]

[6] = tested on: S. pneumoniae serotype 3 strain WU2; experiment: Intraperitoneal lethal dose systemic infection (sepsis) mouse model; type: in vivo, BALB/c mice
Source text: 1) A lethal dose of S. pneumoniae serotype 3 strain WU2 (100 CFU) was used in this experiment. Bacteria were either untreated or treated ex-vivo for 1 hr with FCRP and used to inoculate intraperitoneally 7 weeks old BALB/c mice.
2) A lethal dose of S. pneumoniae serotype 3 strain WU2 (100 CFU) was used in this experiment. Bacteria were co-administered intraperitonealy to 7 weeks old BALB/c mice in the presence and absence of FCRP. […] Furthermore, in mice infected in the absence of FCRP bacteria could be found in the spleens of 100% of the (FIG. 15B) mice.
3) In a similar experiment, the mice were inoculated with bacteria in the presence and absence of FCRP and the mice were monitored for their survival.

[7] = tested on: S. pneumoniae serotype 3 strain WU2; experiment: Intranasal inoculation mouse model: nasopharyngeal and lung colonization; type: in vivo, BALB/c mice; settings: 10^7 bacteria

H-Ala-Asp-Ser-Asp-Ser-Asp-Ser-Asp-Leu-Ser-Leu-Glu-Glu-Glu-Arg-OH (H-ADSDSDSDLSLEEER-OH; listed as Homo sapiens) [FCRP, 15 amino acid peptide from Flamingo-cadherin]
maximal inhibition of adhesion to A549 cells ([1]; 15 μg/well, FIG. 3A): 80%
maximal adhesion inhibition ([2]; 20 μg/well, FIG. 3B): 41%
inhibition of adhesion to A549 ([3]; 5 μg/well): significantly
inhibition of adhesion to A549 cells ([3]; 20 μg/well): 90%
inhibition of adhesion to A549 ([4]; 5 μg/well, p<0.001): significantly
inhibition of adhesion to A549 cells ([4]; 15 μg/well): 75%
binding of FCRP to rFBA (rFBA): a band of 33.5 kDa was shown to bind FCRP
bacterial colonization ([5]; 5×10^6 bacteria, 40 μg ex vivo, FIG. 11A): significant inhibition of bacterial colonization
aspiration to the lung ([5]; 5×10^6 bacteria, 40 μg ex vivo, FIG. 11B): reduced aspiration to the lung
pneumonia development ([5]; 5×10^6 bacteria, 40 μg ex vivo, FIG. 11C): reduced pneumonia development
nasopharyngeal colonization ([5]; 10^6 bacteria treated ex vivo 1 hr with 40 μg, 3, 24, 48 hours, FIG. 9A): inhibited nasopharyngeal colonization significantly
aspiration to the lungs ([5]; 10^6 bacteria treated ex vivo 1 hr with 40 μg, FIG. 9B): significant inhibition of aspiration to the lungs
bacterial load (FIG. 13A) ([5]; 10^7 bacteria, pre-treatment, 3 and 48 hrs): reduced bacterial load significantly
bacterial load in lungs (FIG. 13B) ([5]; 10^7 bacteria, pre-treatment, 24 hour): clear reduction in bacterial load
number of bacteria in the lungs ([5]; co-administered, 4 hours after inoculation): reduced significantly
colonization in the nasopharynx ([5]; inoculum 5×10^5, 20 μg/ml, 3, 6, 24 and 48 hours, FIG. 4A): inhibited colonization in the nasopharynx significantly
colonization of the nasopharynx ([5]; inoculum 5×10^5, 40 μg/ml, all time points, FIG. 4A): prevented S. pneumoniae colonization of the nasopharynx at all time points tested
colonization of the lung ([5]; inoculum 5×10^5, 20 or 40 μg/ml, 3 and 6 hours, FIG. 4B): inhibited significantly colonization of the lung
colonization in the nasopharynx ([5]; inoculum 10^6, 20 μg/ml, 3, 6, 24 and 48 hours, FIG. 4C): inhibited colonization in the nasopharynx significantly
colonization of the lung ([5]; inoculum 10^6, 40 μg/ml, 3, 6 and 24 hours, FIG. 4D): significantly inhibited colonization of the lung
colonization of the nasopharynx ([5]; inoculum 10^6, 40 μg/ml, FIG. 4C): significantly higher ability to inhibit S. pneumoniae colonization of the nasopharynx
bacteria in the lungs ([5]; inoculum 10^6, 20 or 40 μg/ml, 48 hours, FIG. 4D): no bacteria could be detected in the lungs
bacteria in the lungs ([5]; new peptide preparation, 48 hr following inoculation, FIG. 10C): no bacteria could be found in the lungs
nasopharyngeal colonization ([5]; new peptide preparation, pneumonia-causing batch, 10^6 bacteria, FIG. 10A): prevented completely
aspiration of the bacteria to the lungs ([5]; new peptide preparation, pneumonia-causing batch, 10^6 bacteria, FIG. 10B): prevented completely
number of bacteria in the lungs ([5]; peptide 1 hr after inoculation, 3 hours after peptide): reduced significantly
survival rate ([6]; 100 CFU i.p., bacteria treated ex-vivo 1 hr, FIG. 14, p<0.05): increased the survival rate of the mice significantly
bacteria in the spleens ([6]; 100 CFU i.p., co-administered, FIG. 15): no bacteria could be recovered from the spleens
survival ([6]; lethal dose i.p., co-administration, FIG. 16, p<0.001): significant increase in survival
bacterial load (FIG. 13A) ([7]; one post inoculation treatment, 3 and 48 hrs): reduced bacterial load significantly
bacterial load in lungs (FIG. 13B) ([7]; post inoculation treatment, 24 hour): clear reduction in bacterial load

B1: rFBA: Recombinant Fructose Bisphosphate Aldolase (FBA; SP0605 Streptococcus pneumoniae TIGR4), 33.5 kDa FBA-HAT fusion protein (protein)
chain: MAIVSAEKFVQAARDNGYAVGGFNTNNLEWTQAILRAAEAKKAPVLIQTSMGAAKYMGGYKVARNLIANLVESMGITVPVAIHLDHGHYEDALECIEVGYTSIMFDGSHLPVEENLKLAKEVVEKAHAKGISVEAEVGTIGGEEDGIIGKGELAPIEDAKAMVETGIDFLAAGIGNIHGPYPVNWEGLDLDHLQKLTEALPGFPIVLHGGSGIPDEQIQAAIKLGVAKVNVNTECQIAFANATRKFARDYEANEAEYDKKKLFDPRKFLADGVKAIQASVEERIDVFGSEGKA
modifications: left off: small tags and cut ends
notes: Recombinant Fructose Bisphosphate Aldolase (FBA; SP0605 Streptococcus pneumoniae TIGR4), 33.5 kDa FBA-HAT fusion protein
inhibition of adhesion to A549 cells ([1]; 0.5 μg/well, protein added to cells, FIG. 5A): 63%
inhibition of adhesion to A549 cells ([2]; 12 μg/well, protein added to cells, FIG. 5B): 92%
